This is an account of results in patent US20130266528A1, “SKIN LIGHTENING COMPOSITION” (priority 2010, published 2013).

The test system of series [1] is HaCaT keratinocyte cells. As to the kind of experiment: Highest concentration above which the active exhibited cytotoxicity. In kind it is cell-based. The conditions noted are these: keratinocyte differentiation experiment of table 2.
The test system of series [2] is HaCaT keratinocyte cells. The series is described as follows: Keratinocyte differentiation (acridine orange staining). The note with it: 24 hrs, average of minimum three replicates. Format: cell-based. Here is the method:
Several dicarboxylic acids were tested in an in-vitro assay viz. keratinocyte differentiation which is a well known pathway leading to skin lightening. The assay protocol is given below: 5×10^4 HaCaT keratinocyte cells/well were grown in 24 well plates for 24 hours. Cells were cultured with actives for 24 hrs. Cells were then washed with Phosphated buffer solution (PBS) and stained with 5 μg/ml acridine orange. Cells were immediately viewed using an epi-fluorescent microscope (Olympus BX 50), at 20× magnification, using appropriate excitation and barrier filters, to simultaneously view red and green fluorescence (excitation: 460 nm and emission>515 nm). The entire plate was scanned and the percentage of differentiated keratinocytes (cells with red fluorescence evenly distributed within the cytoplasm) was estimated. Data is represented as % control.

Another series has as its system B16 melanocytes. The note with it: 1 mM active, 24 hrs, average of minimum three replicates. Here is the method:
B16 melanocytes were cultured in 60 mm^2 petriplates for 2-3 days or until they reached ˜70% confluency and then actives were added and incubated for 24 hrs. Cells were harvested and protein content was estimated using Bradford method. The cells were then solubilized in 0.1N NaOH and melanin was estimated. Data are then calculated as mg melanin/mg protein and represented as % control. Decreased numbers indicate inhibition of melanin synthesis by the actives.

Each structure is given as a SMILES string. Counter-ions that a name gives are not always drawn.

In the case of `O=C(O)CCCCCCCC(=O)O` [azeleic acid], the “Conc. of active = highest possible concentration above which the active exhibited cytotoxicity” value with HaCaT keratinocyte cells [1] worked out at 5500 µM. Further, in the series on HaCaT keratinocyte cells [2] (5.5 mM active), the “% Keratinocyte differentiation, average” value was determined as 175 % control.
For the compound `O=C(O)/C=C/C(=O)O` [disodium fumarate], the “Conc. of active = highest possible concentration above which the active exhibited cytotoxicity” value in the series on HaCaT keratinocyte cells [1] was 10000 µM. Also, the “% Keratinocyte differentiation, average” value in the series with HaCaT keratinocyte cells [2] (10 mM active) is on record as 183 % control.
Consider `O=C(O)CCCCCCCCC(=O)O` [sebacic acid], for which the “Conc. of active = highest possible concentration above which the active exhibited cytotoxicity” value in the series on HaCaT keratinocyte cells [1] was 5000 µM. Also, the “% Keratinocyte differentiation, average” value with HaCaT keratinocyte cells [2] (5 mM active) is reported as 130 % control.
Consider `CCCC(=O)[O-].[Na+]` [sodium butyrate], for which the “Melanin (mg melanin/mg protein), average” value in the series with B16 melanocytes is on record as 92 % control. Besides, the “Conc. of active = highest possible concentration above which the active exhibited cytotoxicity” value in the series with HaCaT keratinocyte cells [1] came out at 1000 µM. Also, the “% Keratinocyte differentiation, average” value in the series on HaCaT keratinocyte cells [2] (1 mM active) is 174 % control.
Turning to `O=C([O-])CCC(=O)[O-].[Na+].[Na+]` [sodium succinate], the “Conc. of active = highest possible concentration above which the active exhibited cytotoxicity” value with HaCaT keratinocyte cells [1] stood at 6000 µM. In addition, the “% Keratinocyte differentiation, average” value in the series with HaCaT keratinocyte cells [2] (6 mM active) is listed as 155 % control.
Take `O=C([O-])C(O)C(O)C(=O)[O-].[Na+].[Na+]` (stereo not shown) [sodium tartarate]: in the series on HaCaT keratinocyte cells [1], the “Conc. of active = highest possible concentration above which the active exhibited cytotoxicity” value turned out to be 10000 µM. Also, the “% Keratinocyte differentiation, average” value with HaCaT keratinocyte cells [2] (10 mM active) amounted to 165 % control.
